According to US6737383B1, “Herbicidal oxadiazolidines” (priority 1999, dated 2004):

Key:
soybean = experiment: Test B pre/postemergence soybean; type: in vivo, Glycine max
Summary of the method: (§1)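 Response is a visual 0-to-10 score relative to untreated plants, where 0 means no effect and 10 means complete control, taken twelve to sixteen days after application. Treatments went onto soil at planting and onto foliage of 1- to 4-leaf plants, using a surfactant-containing non-phytotoxic solvent.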

surinam grass = experiment: Test B pre/postemergence surinam grass; type: in vivo, Brachiaria decumbens
Summary of the method: as §1

rice = experiment: Test B flood test rice; type: in vivo, Oryza sativa
Summary of the method: (§2)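 Plants were grown to the 2-leaf stage before treatment with test chemical, then held in a greenhouse for twelve to sixteen days. Injury was visually rated against untreated controls on a 0–10 scale, where 0 is no effect and 10 is complete control.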

corn = experiment: Test B pre/postemergence corn; type: in vivo, Zea mays
Summary of the method: as §1

rape = experiment: Test B pre/postemergence rape; type: in vivo, Brassica napus
Summary of the method: as §1

cocklebur = experiment: Test B pre/postemergence cocklebur; type: in vivo, Xanthium strumarium
Summary of the method: as §1

wild oat = experiment: Test B pre/postemergence wild oat; type: in vivo, Avena fatua
Summary of the method: as §1

giant foxtail = experiment: Test B pre/postemergence giant foxtail; type: in vivo, Setaria faberii
Summary of the method: as §1

smallflower flatsedge = experiment: Test B flood test smallflower flatsedge; type: in vivo, Cyperus difformis
Summary of the method: as §2

pigweed = experiment: Test B pre/postemergence pigweed; type: in vivo, Amaranthus retroflexus
Summary of the method: as §1

wheat = experiment: Test B pre/postemergence wheat; type: in vivo, Triticum aestivum
Summary of the method: as §1

bedstraw = experiment: Test B pre/postemergence bedstraw; type: in vivo, Galium aparine
Summary of the method: as §1

velvetleaf = experiment: Test B pre/postemergence velvetleaf; type: in vivo, Abutilon theophrasti
Summary of the method: as §1

duck salad = experiment: Test B flood test duck salad; type: in vivo, Heteranthera limosa
Summary of the method: as §2

purple nutsedge = experiment: Test B pre/postemergence purple nutsedge; type: in vivo, Cyperus rotundus
Summary of the method: as §1

sugar beet = experiment: Test B pre/postemergence sugar beet; type: in vivo, Beta vulgaris
Summary of the method: as §1

[1] = Postemergence, Rate 62 g/ha, scale 0 to 10, 0 is no effect, 10 is complete control
[2] = Postemergence, Rate 250 g/ha, scale 0 to 10, 0 no effect, 10 complete control
[3] = Preemergence, Rate 62 g/ha, scale 0 to 10 (0 no effect, 10 complete control)
[4] = Preemergence, Rate 125 g/ha, scale 0 to 10 (0 no effect, 10 complete control)
[5] = Preemergence, Rate 250 g/ha, scale of 0 to 10 where 0 is no effect and 10 is complete control
[6] = Preemergence, Rate 500 g/ha, scale 0 (no effect) to 10 (complete control)
[7] = Rate 125 g/ha, Postemergence, scale 0 to 10, 0 no effect, 10 complete control
[8] = Rate 500 g/ha, Postemergence, scale 0 to 10, 0 no effect, 10 complete control
[9] = Rate 125 g/ha, Postemergence section (flood test species), scale 0 to 10, 0 no effect, 10 complete control
[10] = Rate 500 g/ha, listed under Postemergence (flood test species), scale 0 to 10, 0 no effect, 10 complete control
[11] = flood test, listed under Postemergence, Rate 250 g/ha, scale 0 to 10, 0 no effect, 10 complete control

## CCN(C(=O)n1oc(=O)n(Cc2cccs2)c1=O)C1CCCCC1 [Compound 82]
soybean; [1]
  Soybean plant response rating: 0
soybean; [2]
  Soybean plant response rating: 0
soybean; [3]
  Soybean plant response rating: 0
soybean; [4]
  Plant response rating, Soybean: 0
soybean; [5]
  Plant response rating, Soybean: 0
soybean; [6]
  Soybean plant response rating: 0
soybean; [7]
  Soybean plant response rating: 0
soybean; [8]
  Soybean plant response rating: 1
Surinam grass; [1]
  B. signalgrass plant response rating: 0
Surinam grass; [2]
  B. signalgrass plant response rating: 0
Surinam grass; [3]
  B. signalgrass plant response rating: 0
Surinam grass; [4]
  Plant response rating, B. signalgrass: 0
Surinam grass; [5]
  Plant response rating, B. signalgrass: 0
Surinam grass; [6]
  B. signalgrass plant response rating: 0
Surinam grass; [7]
  B. signalgrass plant response rating: 0
Surinam grass; Rate 500 g/ha, Postemergence, scale of 0 to 10 where 0 is no effect and 10 is complete control
  B. signalgrass plant response rating: 0
rice; [1]
  Rice plant response rating: 0
rice; [9]
  Rice plant response rating: 0
rice; [10]
  Rice plant response rating: 0
rice; [11]
  Rice plant response rating: 0
corn; [1]
  Corn plant response rating: 0
corn; [2]
  Corn plant response rating: 0
corn; [3]
  Corn plant response rating: 0
corn; [4]
  Plant response rating, Corn: 0
corn; [5]
  Plant response rating, Corn: 0
corn; [6]
  Corn plant response rating: 0
corn; [7]
  Corn plant response rating: 0
corn; [8]
  Corn plant response rating: 0
rape; [1]
  Rape plant response rating: 0
rape; [2]
  Rape plant response rating: 0
rape; [3]
  Rape plant response rating: 0
rape; [4]
  Plant response rating, Rape: 0
rape; [5]
  Plant response rating, Rape: 0
rape; [6]
  Rape plant response rating: 0
rape; [7]
  Rape plant response rating: 0
rape; [8]
  Rape plant response rating: 0
cocklebur; [1]
  Cocklebur plant response rating: 0
cocklebur; [2]
  Cocklebur plant response rating: 0
cocklebur; [3]
  Cocklebur plant response rating: 0
cocklebur; [4]
  Plant response rating, Cocklebur: 0
cocklebur; [5]
  Plant response rating, Cocklebur: 0
cocklebur; [6]
  Cocklebur plant response rating: 0
cocklebur; [7]
  Cocklebur plant response rating: 0
cocklebur; [8]
  Cocklebur plant response rating: 0
Wild oat; [1]
  Wild oats plant response rating: 0
Wild oat; [2]
  Wild oats plant response rating: 0
Wild oat; [3]
  Wild oats plant response rating: 0
Wild oat; [4]
  Plant response rating, Wild oats: 0
Wild oat; [5]
  Plant response rating, Wild oats: 0
Wild oat; [6]
  Wild oats plant response rating: 0
Wild oat; [7]
  Wild oats plant response rating: 0
Wild oat; [8]
  Wild oats plant response rating: 0
Giant foxtail; [1]
  Giant foxtail plant response rating: 0
Giant foxtail; [2]
  Giant foxtail plant response rating: 0
Giant foxtail; [3]
  Giant foxtail plant response rating: 0
Giant foxtail; [4]
  Plant response rating, Giant foxtail: 0
Giant foxtail; [5]
  Plant response rating, Giant foxtail: 0
Giant foxtail; [6]
  Giant foxtail plant response rating: 0
Giant foxtail; [7]
  Giant foxtail plant response rating: 0
Giant foxtail; [8]
  Giant foxtail plant response rating: 0
Smallflower flatsedge; [1]
  S. Flatsedge plant response rating: 0
Smallflower flatsedge; [9]
  S. Flatsedge plant response rating: 0
Smallflower flatsedge; [10]
  S. Flatsedge plant response rating: 0
Smallflower flatsedge; [11]
  S. Flatsedge plant response rating: 0
pigweed; [1]
  Redroot pigweed plant response rating: 0
pigweed; [2]
  Redroot pigweed plant response rating: 0
pigweed; [3]
  Redroot pigweed plant response rating: 0
pigweed; [4]
  Plant response rating, Redroot pigweed: 0
pigweed; [5]
  Plant response rating, Redroot pigweed: 0
pigweed; [6]
  Redroot pigweed plant response rating: 0
pigweed; [7]
  Redroot pigweed plant response rating: 0
pigweed; [8]
  Redroot pigweed plant response rating: 0
wheat; [1]
  Wheat plant response rating: 0
wheat; [2]
  Wheat plant response rating: 0
wheat; [3]
  Wheat plant response rating: 0
wheat; [4]
  Plant response rating, Wheat: 0
wheat; [5]
  Plant response rating, Wheat: 0
wheat; [6]
  Wheat plant response rating: 0
wheat; [7]
  Wheat plant response rating: 0
wheat; [8]
  Wheat plant response rating: 0
bedstraw; [1]
  Bedstraw plant response rating: 0
bedstraw; [2]
  Bedstraw plant response rating: 0
bedstraw; [3]
  Bedstraw plant response rating: 0
bedstraw; [4]
  Plant response rating, Bedstraw: 0
bedstraw; [5]
  Plant response rating, Bedstraw: 0
bedstraw; [6]
  Bedstraw plant response rating: 0
bedstraw; [7]
  Bedstraw plant response rating: 0
bedstraw; [8]
  Bedstraw plant response rating: 1
velvetleaf; [1]
  Velvetleaf plant response rating: 0
velvetleaf; [2]
  Velvetleaf plant response rating: 0
velvetleaf; [3]
  Velvetleaf plant response rating: 0
velvetleaf; [4]
  Plant response rating, Velvetleaf: 0
velvetleaf; [5]
  Plant response rating, Velvetleaf: 0
velvetleaf; [6]
  Velvetleaf plant response rating: 0
velvetleaf; [7]
  Velvetleaf plant response rating: 0
velvetleaf; [8]
  Velvetleaf plant response rating: 0
Duck salad; [1]
  Ducksalad plant response rating: 0
Duck salad; [9]
  Ducksalad plant response rating: 0
Duck salad; [10]
  Ducksalad plant response rating: 0
Duck salad; [11]
  Ducksalad plant response rating: 0
Purple nutsedge; [1]
  Nutsedge plant response rating: 0
Purple nutsedge; [2]
  Nutsedge plant response rating: 0
Purple nutsedge; [3]
  Nutsedge plant response rating: 0
Purple nutsedge; [4]
  Plant response rating, Nutsedge: 0
Purple nutsedge; [5]
  Plant response rating, Nutsedge: 0
Purple nutsedge; [6]
  Nutsedge plant response rating: 0
Purple nutsedge; [7]
  Nutsedge plant response rating: 0
Purple nutsedge; [8]
  Nutsedge plant response rating: 0
Sugar beet; [1]
  Sugarbeets plant response rating: 0
Sugar beet; [2]
  Sugarbeets plant response rating: 0
Sugar beet; [3]
  Sugarbeets plant response rating: 0
Sugar beet; [4]
  Plant response rating, Sugarbeets: 0
Sugar beet; [5]
  Plant response rating, Sugarbeets: 0
Sugar beet; [6]
  Sugarbeets plant response rating: 0
Sugar beet; [7]
  Sugarbeets plant response rating: 0
Sugar beet; [8]
  Sugarbeets plant response rating: 2
